The target in one assay is CDK8/Cyclin C (Homo sapiens (Human), UniProt P49336). The assay can be described thus: CDK8/Cyclin C binding assay (LanthaScreen Eu-Kinase Binding Assay). The settings on record: binding assay. How it is done: The enzyme has been purchase from Invitrogen (PV4402) as a dimer of full-length His-tagged recombinant human proteins.
(§1) Assays were performed in 384-well plates. The final read out was generated using an EnVision plate reader (Perkin-Elmer).

Another assay concerns the target Haspin kinase (Homo sapiens (Human), UniProt Q8TF76). The assay can be described thus: Haspin kinase assay (ADP-Glo). In kind it is biochemical. To be noted: ATP 150 μM. From the text:
The kinase assay relies on ADP-Glo^KM biochemical kinase assay (Promega). This is a luminescent kinase assay that measures ADP formed from a kinase reaction. Then ADP is converted into ATP, which is transformed into a light signal by Ultra-Glo™ Luciferase. The luminescent signal positively correlates with kinase activity. The assay measures the intrinsic ATPase activity (in the absence of peptidic substrate as phosphate acceptor).
The enzyme was purchase from Invitrogen (PV5708) as the kinase domain of GST tagged recombinant human proteins.
Assay conditions were as indicated by the kit manufacturers with the following adaptations: • Assay buffer: 15 mM HEPES pH 7.4, 20 mM NaCl, 1 mM EGTA, 0.02% Tween 20, 10 mM MgCl2, 0.1 mg/ml BGG • Assay volume: 20 μl • Incubation time and temperature: 60 min at 30° C. • Haspin concentration: 20 nM • ATP concentration: 150 μM • Tested compound: Serial 1:3 dilutions • Final DMSO concentration in the assay: 1%
Assays were performed in 384-well plates. The final read out was generated using an EnVision plate reader (Perkin-Elmer). Luminescent relative units are normalized against the control activity included for each compound (i.e., 100% Haspin activity, without compound) and the percentage of inhibition is calculated.
For orientation: ADP-Glo first removes unused ATP, then detects ADP through luciferase.

In another assay the target is CDK19/Cyclin C (Homo sapiens (Human), UniProt Q9BWU1). The assay can be described thus: CDK19/Cyclin C binding assay (LanthaScreen Eu-Kinase Binding Assay). To be noted: read-out: CDK19-CYCC IC50. How it is done:
The binding assay relies on the LanthaScreen™ Eu-Kinase Binding Assay (Invitrogen).
Assay conditions were as indicated by the kit manufacturers with the following adaptations: • Assay buffer: 50 mM HEPES, pH 7.5, 1 mM EGTA, 0.01% Brij-35, 10 mM MgCl2 • Assay volume: 20 μl • Incubation time and temperature: 60 min at 25° C. • Cdk19-Cyclin C concentration: 2 nM • Tracer concentration: 20 nM • (Eu)-labelled anti-GST antibody concentration: 2 nM • Tested compound: Serial 1:3 dilutions • Final DMSO concentration in the assay: 1%
as §1
On the technique in general: In TR-FRET formats the signal depends on donor and acceptor labels being close together.

Sequence of CDK8/Cyclin C (P49336 whole entry): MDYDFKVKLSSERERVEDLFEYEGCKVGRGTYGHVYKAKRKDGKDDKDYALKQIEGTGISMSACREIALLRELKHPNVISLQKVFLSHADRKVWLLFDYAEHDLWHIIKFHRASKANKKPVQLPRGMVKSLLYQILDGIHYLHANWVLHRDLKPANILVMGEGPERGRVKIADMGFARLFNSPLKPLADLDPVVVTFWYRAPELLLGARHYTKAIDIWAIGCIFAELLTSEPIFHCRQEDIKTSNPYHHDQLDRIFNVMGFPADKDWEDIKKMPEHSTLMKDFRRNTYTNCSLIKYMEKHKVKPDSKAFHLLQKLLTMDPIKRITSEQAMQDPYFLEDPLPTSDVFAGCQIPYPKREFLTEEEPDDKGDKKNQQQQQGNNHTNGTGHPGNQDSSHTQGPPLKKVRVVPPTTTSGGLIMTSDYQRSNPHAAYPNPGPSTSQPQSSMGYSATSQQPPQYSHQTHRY
Sequence of CDK8/Cyclin C (P24863 whole entry partner): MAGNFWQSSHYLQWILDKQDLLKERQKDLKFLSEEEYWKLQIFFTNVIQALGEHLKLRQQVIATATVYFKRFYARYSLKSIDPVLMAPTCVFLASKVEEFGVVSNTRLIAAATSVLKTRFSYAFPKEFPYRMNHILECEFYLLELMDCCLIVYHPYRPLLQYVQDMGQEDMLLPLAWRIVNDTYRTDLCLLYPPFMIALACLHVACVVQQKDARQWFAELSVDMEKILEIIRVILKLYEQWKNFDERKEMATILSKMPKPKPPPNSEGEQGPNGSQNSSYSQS
Sequence of CDK19/Cyclin C (Q9BWU1 whole entry): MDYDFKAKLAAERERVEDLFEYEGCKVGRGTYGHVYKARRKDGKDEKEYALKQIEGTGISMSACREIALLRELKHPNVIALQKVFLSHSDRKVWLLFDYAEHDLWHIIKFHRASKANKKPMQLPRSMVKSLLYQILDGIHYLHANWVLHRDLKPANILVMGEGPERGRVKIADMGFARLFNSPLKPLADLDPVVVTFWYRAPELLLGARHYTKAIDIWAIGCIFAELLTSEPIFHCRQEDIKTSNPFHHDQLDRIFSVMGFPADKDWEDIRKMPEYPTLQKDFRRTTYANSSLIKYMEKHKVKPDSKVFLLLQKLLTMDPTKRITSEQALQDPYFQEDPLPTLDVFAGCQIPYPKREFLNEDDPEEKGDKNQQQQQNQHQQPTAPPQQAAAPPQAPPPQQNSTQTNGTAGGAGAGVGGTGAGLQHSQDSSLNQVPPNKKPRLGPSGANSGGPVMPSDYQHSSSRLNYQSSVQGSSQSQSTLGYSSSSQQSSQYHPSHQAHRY
Sequence of CDK19/Cyclin C (P24863 whole entry partner): as the sequence (P24863 whole entry partner) above
Sequence of Haspin kinase (Q8TF76 484-798): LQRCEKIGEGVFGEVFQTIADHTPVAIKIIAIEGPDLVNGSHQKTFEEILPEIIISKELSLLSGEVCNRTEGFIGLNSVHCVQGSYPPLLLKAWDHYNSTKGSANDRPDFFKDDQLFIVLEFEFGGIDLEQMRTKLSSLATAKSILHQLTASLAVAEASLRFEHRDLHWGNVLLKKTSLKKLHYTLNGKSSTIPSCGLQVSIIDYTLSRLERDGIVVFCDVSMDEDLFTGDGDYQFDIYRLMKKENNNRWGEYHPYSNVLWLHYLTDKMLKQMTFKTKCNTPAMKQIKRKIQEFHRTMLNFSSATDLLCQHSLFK

Take `CCn1c(C(N)=O)cc2c1-c1ccncc1O[C@H]2C1CCOCC1` (single isomer, unassigned) [Example 95]: the 50% inhibitory concentration (IC50) at CDK8/Cyclin C was less than 1.41 nM.
Regarding `CCn1c(C(N)=O)cc2c1-c1ccncc1O[C@@H]2C1CCOCC1` (single isomer, unassigned) [Example 96], the IC50 on Haspin kinase was 355 nM; on CDK8/Cyclin C it was less than 1.41 nM.
Consider `CC1(C)Oc2cnccc2-c2[nH]c(C(=O)O)cc21` [Example 2], for which the 50% inhibitory concentration (IC50) against Haspin kinase stood at 306 nM; on CDK8/Cyclin C, 146 nM.
For the compound `CNC(=O)c1cc2c([nH]1)-c1ccncc1OC2(C)C` [Example 3], the concentration for half-maximal inhibition (IC50) was 180 nM at Haspin kinase, 322 nM on CDK19/Cyclin C and 92.2 nM at CDK8/Cyclin C.
With `CC1(C)Oc2cnccc2-c2[nH]c(C(=O)Nc3ccccc3)cc21` [Example 4], the half-maximal inhibitory concentration (IC50) at Haspin kinase came to 7550 nM; at CDK8/Cyclin C, 5280 nM.
In the case of `CC(C)(C)OC(=O)N1CCC(NC(=O)c2cc3c([nH]2)-c2ccncc2OC3(C)C)CC1` [Example 5], the IC50 against Haspin kinase stood at 18400 nM; on CDK8/Cyclin C, 1870 nM.
On to `CC(C)NC(=O)c1cc2c([nH]1)-c1ccncc1OC2(C)C` [Example 6], for which the values for the IC50 against Haspin kinase and on CDK8/Cyclin C were 1780 nM and 2410 nM, respectively.
As for `COCCNC(=O)c1cc2c([nH]1)-c1ccncc1OC2(C)C` [Example 7], the IC50 is 1020 nM at Haspin kinase and 1490 nM on CDK8/Cyclin C.
Regarding `CC1(C)Oc2cnccc2-c2[nH]c(C(=O)NCc3ccccc3)cc21` [Example 8], the IC50 was found to be 305 nM against Haspin kinase and 340 nM on CDK8/Cyclin C.
As for `CCN(CC)C(=O)c1cc2c([nH]1)-c1ccncc1OC2(C)C` [Example 9], the IC50 on Haspin kinase is 2350 nM; at CDK8/Cyclin C, 979 nM.
For `CC1(C)Oc2cnccc2-c2[nH]c(C(=O)NC3CCNCC3)cc21` [Example 10], the half-inhibitory concentration (IC50) against Haspin kinase was 1730 nM; at CDK8/Cyclin C, 3520 nM.
For the compound `CC1(C)Oc2cnccc2-c2[nH]c(C(=O)NCCc3ccccc3)cc21` [Example 11], the half-inhibitory concentration (IC50) was determined as 418 nM against Haspin kinase and 162 nM at CDK8/Cyclin C.
As for `Cl.NC(=O)c1cc2c([nH]1)-c1ccncc1OC21CCNCC1` [Example 12], the values for the IC50 against Haspin kinase, at CDK19/Cyclin C and at CDK8/Cyclin C were 53.3 nM, 550 nM and 412 nM, respectively.
As for `NC(=O)c1cc2c([nH]1)-c1ccncc1OC21CCCCC1` [Example 13], the IC50 at Haspin kinase is 53.6 nM; at CDK19/Cyclin C, 8.22 nM; at CDK8/Cyclin C it was 4.18 nM.
Taken in the same sequence, the figures for `O=C(O)c1cc2c([nH]1)-c1ccncc1OC21CCCCC1` [Example 14] were 1000 nM, 3.01 nM and 23.9 nM.
`NC(=O)c1cc2c([nH]1)-c1ccncc1OC21CCN(C2CC2)CC1` [Example 16]: the IC50 on Haspin kinase came out at 4280 nM; at CDK8/Cyclin C, 5700 nM.
Regarding `O=C(O)c1cc2c([nH]1)-c1ccncc1OC21CCN(C2CC2)CC1` [Example 17], the IC50 against Haspin kinase was 5960 nM; at CDK8/Cyclin C, 1530 nM.
As to `O=C(O)c1cc2c([nH]1)-c1ccncc1OC21CCN(CC(F)(F)F)CC1` [Example 19], the results for the IC50 against Haspin kinase and at CDK8/Cyclin C were 2950 nM and 652 nM, respectively.
With `NC(=O)c1cc2c([nH]1)-c1ccncc1OC21CCOCC1` [Example 20], the figures for the IC50 on Haspin kinase, on CDK19/Cyclin C and on CDK8/Cyclin C were 206 nM, 211 nM and 54.7 nM, respectively.
For `CC1(C)Oc2cnccc2-c2[nH]c(C(=O)N3CCOCC3)cc21` [Example 21], the IC50 on Haspin kinase is 868 nM; at CDK8/Cyclin C, 671 nM.
Take `Cn1c(C(=O)O)cc2c1-c1ccncc1OC2(C)C` [Example 23]: the concentration for half-maximal inhibition (IC50) against Haspin kinase turned out to be 648 nM; at CDK19/Cyclin C, 233 nM; at CDK8/Cyclin C, 61.1 nM.
On to `CC1(C)Oc2cnccc2-c2c1cc(C(=O)O)n2Cc1ccccc1` [Example 24], for which the concentration for half-maximal inhibition (IC50) against Haspin kinase was found to be 20400 nM; at CDK8/Cyclin C, 10000 nM.
`CC(C)n1c(C(N)=O)cc2c1-c1ccncc1OC2(C)C` [Example 25]: the IC50 on Haspin kinase amounted to 22300 nM; at CDK8/Cyclin C, 5870 nM.
`CC(C)n1c(C(=O)O)cc2c1-c1ccncc1OC2(C)C` [Example 26]: the IC50 on Haspin kinase was found to be 49000 nM; at CDK8/Cyclin C, 5940 nM.
For `COCCn1c(C(=O)O)cc2c1-c1ccncc1OC2(C)C` [Example 27], the half-maximal inhibitory concentration (IC50) on Haspin kinase stood at 49900 nM; on CDK8/Cyclin C it was 10000 nM.
For the compound `CC1(C)Oc2cnccc2-c2[nH]c(C(N)=O)c(Cl)c21` [Example 28], the 50% inhibitory concentration (IC50) amounted to 26.6 nM on Haspin kinase, 16.6 nM on CDK19/Cyclin C and 9.32 nM on CDK8/Cyclin C.
As for `CC1(C)Oc2cnccc2-c2[nH]c(C(=O)O)c(Br)c21` [Example 29], the IC50 at Haspin kinase came out at 89.3 nM; on CDK19/Cyclin C it was 205 nM; on CDK8/Cyclin C it was 52.5 nM.
Take `CC1(C)Oc2c(ccnc2Cl)-c2[nH]c(C(N)=O)cc21` [Example 36]: the 50% inhibitory concentration (IC50) against Haspin kinase stood at 292 nM; at CDK8/Cyclin C, 559 nM.
`CC1(C)Oc2c(ccnc2Cl)-c2[nH]c(C(=O)O)cc21` [Example 37]: the IC50 was 1650 nM on Haspin kinase and 6290 nM at CDK8/Cyclin C.
As for `CC1(C)Oc2cnc(Cl)cc2-c2[nH]c(C(N)=O)cc21` [Example 38], the IC50 on Haspin kinase worked out at 6830 nM; at CDK8/Cyclin C, 461 nM.
The like results for `CC1(C)Oc2cncc(-c3ccccc3)c2-c2[nH]c(C(N)=O)cc21` [Example 39] were, in that order, 2330 nM and 206 nM.
Turning to `CC1(C)Oc2cnccc2-c2[nH]c(C(N)=O)c(-c3cccc(S(N)(=O)=O)c3)c21` [Example 40], the IC50 against Haspin kinase is 254 nM; at CDK8/Cyclin C, 269 nM.
The like results for `CCN1CCC2(CC1)Oc1cnccc1-c1[nH]c(C(N)=O)cc12` [Example 42] were, in that order, 153 nM and 197 nM.
As for `CCn1c(C(=O)O)cc2c1-c1ccncc1OC2(C)C` [Example 44], the half-inhibitory concentration (IC50) turned out to be 6730 nM on Haspin kinase and 312 nM at CDK8/Cyclin C.
For the compound `NC(=O)c1cc2c([nH]1)-c1ccncc1OC21CCN(CCC(F)(F)F)CC1` [Example 47], the IC50 against Haspin kinase is 466 nM; on CDK8/Cyclin C, 120 nM.
Regarding `NC(=O)c1cc2c([nH]1)-c1ccncc1OC21CCN(CCCC(F)(F)F)CC1` [Example 48], the half-inhibitory concentration (IC50) on Haspin kinase came out at 470 nM; on CDK8/Cyclin C it was 886 nM.
In the case of `CC1(C2(C)Oc3cnccc3-c3[nH]c(C(N)=O)cc32)COC1` (centres unmarked) [Example 49], the IC50 was determined as 5700 nM against Haspin kinase and 315 nM on CDK8/Cyclin C.
With `CC1(C)Oc2cnccc2-c2[nH]c(C(N)=O)c(-c3ccc(F)cc3)c21` [Example 50], the half-inhibitory concentration (IC50) was 782 nM at Haspin kinase and 581 nM on CDK8/Cyclin C.
Turning to `CC1(C)Oc2cnccc2-c2[nH]c(C(N)=O)c(-c3ccccc3O)c21` [Example 64], the 50% inhibitory concentration (IC50) came out at 656 nM at Haspin kinase and 112 nM on CDK8/Cyclin C.
`CCn1c(C(N)=O)cc2c1-c1ccncc1OC21CCC1` [Example 66]: the half-inhibitory concentration (IC50) on CDK19/Cyclin C is 1.41 nM; on CDK8/Cyclin C, 0.191 nM.
Turning to `CC1(C)Oc2cnccc2-c2[nH]c(C(N)=O)c(-c3ccccc3C(F)(F)F)c21` [Example 74], the values for the IC50 against Haspin kinase and on CDK8/Cyclin C were 743 nM and 211 nM, respectively.
Take `CC(=O)N1CCC2(CC1)Oc1cnccc1-c1[nH]c(C(N)=O)cc12` [Example 77]: the IC50 on Haspin kinase turned out to be 188 nM; at CDK8/Cyclin C, 7.48 nM.
Consider `COc1ccccc1-c1c2c(n(CCF)c1C(=O)NCCF)-c1ccncc1OC2(C)C` [Example 78], for which the IC50 against Haspin kinase is 33300 nM; on CDK8/Cyclin C it was 484 nM.
For the compound `COc1cccc(-c2c(C(N)=O)[nH]c3c2C(C)(C)Oc2cnccc2-3)c1` [Example 85], the results for the IC50 on Haspin kinase and at CDK8/Cyclin C were 260 nM and 127 nM, respectively.
Regarding `NC(=O)c1cc2c(n1CCF)-c1ccncc1OC21CCOCC1` [Example 92], the IC50 was 25.6 nM on Haspin kinase and less than 1.41 nM on CDK8/Cyclin C.
Take `CCn1c(C(N)=O)c(C2CC2)c2c1-c1ccncc1OC2(C)C` [Example 94]: the IC50 against Haspin kinase amounted to 17.5 nM; on CDK8/Cyclin C, 2.65 nM.
Turning to `CCn1c(C(N)=O)c(Cl)c2c1-c1ccncc1OC21CCOCC1` [Example 104], the IC50 against Haspin kinase stood at 8.91 nM; at CDK8/Cyclin C, 2.41 nM.
Turning to `CCn1c(C(N)=O)c(Cl)c2c1-c1ccncc1OC21CCCCC1` [Example 105], the IC50 is 8.82 nM at Haspin kinase and less than 1.41 nM at CDK8/Cyclin C.
The compound `COC(=O)c1[nH]c2c(c1-c1ccccc1)C(C)(C)Oc1cnccc1-2` [LXIX] returned an IC50 on CDK8/Cyclin C of 2000 nM.
Still for that read-out and setting: as for `COC(=O)c1[nH]c2c(c1Br)C(C)(C)Oc1cnccc1-2` [LXVIII], the figure is 780 nM; as for `COC(=O)c1[nH]c2c(c1-c1ccc(S(N)(=O)=O)cc1)C(C)(C)Oc1cnccc1-2` [LXX], 2850 nM.
For `COC(=O)c1cc2c([nH]1)-c1ccncc1OC2(C)C` [VIII], the IC50 on CDK8/Cyclin C was determined as 677 nM.

One may read the IC50 as the point on the concentration scale where inhibition reaches its midpoint.

Values taken from US10208056B2, “Condensed tricyclic compounds as protein kinase inhibitors” (FUNDACIÓN DEL SECTOR PÚBLICO ESTATAL CENTRO NACIONAL DE …, priority 2015, dated 2019).
